Assay results as given in ChEMBL document CHEMBL1137784, “L337H mutant of rat neuronal nitric oxide synthase resembles human neuronal nitric oxide synthase toward inhibitors” (J Med Chem, 2009).

Experiments:
Rattus norvegicus = organism: Rattus norvegicus; experiment: Selectivity ratio of IC50 for wild type rat nNOS to IC50 for rat nNOS L337H mutant by hemoglobin capture assay
Nitric oxide synthase 1 [1] = target: Nitric oxide synthase 1 (Rattus norvegicus, UniProt P29476); experiment: Inhibition of wild type rat nNOS by hemoglobin capture assay
[2] = Selectivity ratio of IC50 for wild type rat nNOS to IC50 for human nNOS by hemoglobin capture assay
Nitric oxide synthase 1 [3] = target: Nitric oxide synthase 1 (Rattus norvegicus, UniProt P29476, L337H)
Nitric oxide synthase 1 [4] = target: T1, Nitric oxide synthase 1 (Homo sapiens, UniProt P29475); experiment: Inhibition of human nNOS by hemoglobin capture assay
Nitric oxide synthase 1 [5] = target: T1, Nitric oxide synthase 1; experiment: Inhibition of human nNOS by radioactivity assay

T1 sequence (P29475 whole entry): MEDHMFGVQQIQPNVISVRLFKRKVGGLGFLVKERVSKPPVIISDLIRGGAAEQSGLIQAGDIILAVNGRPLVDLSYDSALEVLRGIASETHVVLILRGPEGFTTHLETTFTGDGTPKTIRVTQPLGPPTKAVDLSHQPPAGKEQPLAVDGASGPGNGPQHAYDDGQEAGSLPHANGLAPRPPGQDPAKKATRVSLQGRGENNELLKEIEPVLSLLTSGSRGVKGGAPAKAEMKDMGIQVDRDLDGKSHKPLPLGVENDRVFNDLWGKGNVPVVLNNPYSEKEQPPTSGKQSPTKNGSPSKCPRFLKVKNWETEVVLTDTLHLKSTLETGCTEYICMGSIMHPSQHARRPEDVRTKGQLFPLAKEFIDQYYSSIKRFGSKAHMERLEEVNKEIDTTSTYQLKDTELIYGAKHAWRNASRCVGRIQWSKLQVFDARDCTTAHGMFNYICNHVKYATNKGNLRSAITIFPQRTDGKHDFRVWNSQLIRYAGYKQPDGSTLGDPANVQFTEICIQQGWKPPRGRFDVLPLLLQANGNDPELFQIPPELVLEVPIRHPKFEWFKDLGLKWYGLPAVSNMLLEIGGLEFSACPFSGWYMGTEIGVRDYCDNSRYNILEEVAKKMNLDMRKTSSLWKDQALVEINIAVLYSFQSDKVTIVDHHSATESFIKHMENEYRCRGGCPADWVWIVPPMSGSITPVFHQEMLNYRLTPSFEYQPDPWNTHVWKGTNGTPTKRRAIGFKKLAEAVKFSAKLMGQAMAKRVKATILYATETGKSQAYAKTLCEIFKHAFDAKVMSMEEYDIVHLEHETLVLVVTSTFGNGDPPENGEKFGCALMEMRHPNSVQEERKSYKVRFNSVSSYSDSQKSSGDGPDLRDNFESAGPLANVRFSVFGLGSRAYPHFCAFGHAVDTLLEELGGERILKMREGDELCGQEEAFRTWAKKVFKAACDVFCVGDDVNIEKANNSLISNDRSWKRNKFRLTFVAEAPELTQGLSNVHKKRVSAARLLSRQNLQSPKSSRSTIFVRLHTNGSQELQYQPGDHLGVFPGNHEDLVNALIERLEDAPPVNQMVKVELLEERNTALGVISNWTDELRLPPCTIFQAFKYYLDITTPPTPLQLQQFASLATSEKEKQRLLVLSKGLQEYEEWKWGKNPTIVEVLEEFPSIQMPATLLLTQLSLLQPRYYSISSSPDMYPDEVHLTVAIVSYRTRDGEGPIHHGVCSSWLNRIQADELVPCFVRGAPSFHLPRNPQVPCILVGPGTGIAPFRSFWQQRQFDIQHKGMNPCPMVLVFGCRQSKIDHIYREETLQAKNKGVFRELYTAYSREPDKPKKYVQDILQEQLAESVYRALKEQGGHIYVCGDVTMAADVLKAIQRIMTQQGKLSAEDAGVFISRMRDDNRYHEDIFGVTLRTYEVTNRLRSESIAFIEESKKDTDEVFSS
Nitric oxide synthase 1 (Rattus norvegicus, UniProt P29476), sequence (P29476 whole entry): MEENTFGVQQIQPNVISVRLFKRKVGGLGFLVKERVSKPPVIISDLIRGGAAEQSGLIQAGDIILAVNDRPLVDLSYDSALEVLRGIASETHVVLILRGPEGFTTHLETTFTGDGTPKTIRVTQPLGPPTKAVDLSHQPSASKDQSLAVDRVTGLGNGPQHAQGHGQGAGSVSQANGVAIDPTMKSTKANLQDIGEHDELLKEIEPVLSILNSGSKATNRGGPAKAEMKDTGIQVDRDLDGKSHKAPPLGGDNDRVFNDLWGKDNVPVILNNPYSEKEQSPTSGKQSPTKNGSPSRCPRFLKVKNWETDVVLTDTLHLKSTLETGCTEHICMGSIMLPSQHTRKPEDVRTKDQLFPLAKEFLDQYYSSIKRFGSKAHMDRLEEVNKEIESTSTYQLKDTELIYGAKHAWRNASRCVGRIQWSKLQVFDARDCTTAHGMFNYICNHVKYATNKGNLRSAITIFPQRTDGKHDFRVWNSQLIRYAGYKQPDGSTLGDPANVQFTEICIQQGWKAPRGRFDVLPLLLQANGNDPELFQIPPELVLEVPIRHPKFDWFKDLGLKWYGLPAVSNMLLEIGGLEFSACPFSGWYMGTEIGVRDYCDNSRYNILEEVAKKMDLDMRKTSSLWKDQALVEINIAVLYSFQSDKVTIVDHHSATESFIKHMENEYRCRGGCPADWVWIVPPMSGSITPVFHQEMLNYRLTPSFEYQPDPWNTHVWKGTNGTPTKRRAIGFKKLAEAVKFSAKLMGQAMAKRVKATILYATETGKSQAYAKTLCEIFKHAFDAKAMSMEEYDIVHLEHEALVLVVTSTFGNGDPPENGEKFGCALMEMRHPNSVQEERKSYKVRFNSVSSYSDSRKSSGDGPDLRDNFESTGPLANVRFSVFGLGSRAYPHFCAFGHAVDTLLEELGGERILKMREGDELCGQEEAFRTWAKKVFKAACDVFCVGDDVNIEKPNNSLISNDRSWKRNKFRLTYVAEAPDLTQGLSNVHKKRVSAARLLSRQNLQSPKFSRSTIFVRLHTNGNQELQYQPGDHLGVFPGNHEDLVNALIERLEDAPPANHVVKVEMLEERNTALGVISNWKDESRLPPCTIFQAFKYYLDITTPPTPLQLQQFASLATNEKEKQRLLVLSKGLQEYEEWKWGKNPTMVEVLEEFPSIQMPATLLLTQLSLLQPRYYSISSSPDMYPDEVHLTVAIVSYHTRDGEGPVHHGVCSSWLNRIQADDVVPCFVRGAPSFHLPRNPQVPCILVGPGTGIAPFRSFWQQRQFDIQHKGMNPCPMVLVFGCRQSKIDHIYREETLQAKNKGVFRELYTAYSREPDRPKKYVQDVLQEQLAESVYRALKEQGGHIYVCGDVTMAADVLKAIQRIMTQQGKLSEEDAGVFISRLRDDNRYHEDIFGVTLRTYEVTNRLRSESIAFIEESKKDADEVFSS
Nitric oxide synthase 1 (Rattus norvegicus, UniProt P29476, L337H), sequence (P29476 whole entry L337H): as the sequence (P29476 whole entry) above, with L337H counted along it

Ratio IC50 (Rattus norvegicus)	IC50 (Nitric oxide synthase 1 [1]) [µM]	Ratio IC50 [2]	IC50 (Nitric oxide synthase 1 [3]) [µM]	IC50 (Nitric oxide synthase 1 [4]) [µM]	IC50 (Nitric oxide synthase 1 [5]) [µM]	Structure (SMILES)
1.1	0.1	1	0.1	0.1	–	Cc1cc(C)nc(N)c1
–	–	–	–	0.6	0.7	Cc1cc(N)nc(CC2CNCC2OCCNCCc2cccc(F)c2)c1 (racemic)
2.7	1.3	3.1	3.4	4	–	Cc1cc(N)nc(CC2CNCC2NCCN)c1 (racemic)
5.7	0.7	4.3	4	3	–	Cc1cc(N)nc(CC2CNCC2NC(=O)CNCCc2cccc(F)c2)c1 (racemic)
4.6	1.1	3.8	5	4.2	–	Cc1cc(N)nc(CC2CNCC2NCCNCCc2ccc(Cl)cc2)c1 (racemic)

Structure (SMILES)	Ratio IC50 (Rattus norvegicus)	IC50 (Nitric oxide synthase 1 [1]) [µM]	Ratio IC50 [2]	IC50 (Nitric oxide synthase 1 [3]) [µM]	IC50 (Nitric oxide synthase 1 [4]) [µM]	IC50 (Nitric oxide synthase 1 [5]) [µM]
NCCNC1CNCC1Cc1cccc(N)n1 (racemic)	–	–	–	–	15.3	–
Cc1cc(N)nc(CC2CNCC2NCCOCCc2cccc(F)c2)c1 (racemic)	1.9	2.9	2.4	5.5	6.6	–
